According to US9938335B2, “Glucagon and GLP-1 co-agonist compounds” (Eli Lilly and Company, priority 2015, dated 2018):
Converted amounts (≈) assume the structure as drawn. Where two headings read alike, the source gives them in different places. Marks after values point to notes of the source that are not given here.

Tests used:
[1] = Viscosity (Rheosense mVroc Viscometer); format: physicochemical; details: approximately 10 mg/mL peptide in 10 mM Tris + 3 mg/mL m-cresol at pH 8.0; 25° C.; shear rate 1934 s^−1
Method: Viscosity of compounds of the present invention is measured in a Rheosense mVroc Viscometer with the following settings:
(a) Syringe size: 500 μL syringe
(b) Flow Rate: 100 μL/min flow rate
(c) Average Temperature: 25° C.
(d) Shear Rate: 1934 s^−1
Dry powder (compound) is weighed out, dissolved in water as a cloudy precipitate, and titrated to approximately pH 8.0 with 1N NaOH. The solution is sonicated and swirled by hand until peptide is in solution. Samples are sterile filtered (0.22 μm PVDF filters). Samples are then analyzed by UV-Vis to assess stock solution concentrations. Solutions are diluted to final concentration using 3× m-cresol in 10 mM Tris pH 8.0 buffer to final concentrations of approximately 10 mg/mL peptide by weight in 10 mM Tris+3 mg/mL m-cresol at pH 8.0. Samples were filtered through 0.22 μm filters immediately prior to viscosity analysis. 25 μL of sample are removed to verify concentration by RP-HPLC before and after analysis.
Water and buffer control samples are measured before and after each sample is analyzed. The instrument is washed with buffer (3×) in between analysis of each sample. The samples are loaded into individual syringes and analyzed. The first measurement is not included in the final calculation to allow for equilibration with the system. Samples are then analyzed in triplicate (n=3).
The viscosity of Compounds 1-4 was measured essentially as described in this assay.

[2] = Solubility (RP-HPLC and HPLC-SEC, 1 week at 4° C.); format: physicochemical; details: for HMW species formation by SEC-HPLC: 1 week at 4° C.; for visible precipitation or phase separation: after 1 week storage at 4° C.
Method: Solubility of compounds of the present invention is measured in an Agilent 1100 HPLC, an Agilent 1200 HPLC and a Nanodrop 2000. The following HPLC columns are used:
(a) RP-HPLC: Waters Symmetry Shield C18, 3.6 um, 4.6×100 mm
(b) HPLC-SEC: Tosoh Biosciences, TSK2000SWXL […]
All peptide concentrations are made at 10 mg/mL in the following:
(a) 10 mM Tris pH 8.0+3 mg/mL m-cresol
(b) 10 mM Tris pH 8.0+3 mg/mL m-cresol+150 mM NaCl
(c) 10 mM Tris pH 8.0+3 mg/mL m-cresol+0.02% Tween-20
5 mL of 10 mg/mL peptide dissolved in 10 mM Tris at pH 8.0 is concentrated to approximately 20 mg/mL using Amicon-ultra 3 kDa MWCO devices. The solution is filtered using Millivex 0.22 μM filters (PVDF membrane) and the final concentration is measured by the NanoDrop spectrometer. This stock solution is used to formulate to the final conditions stated above using 3× m-cresol, 10× NaCl, and 100× Tween-20 stock solutions. A 10 mg/mL PBS solution is also prepared by dissolving directly at 5 mg/mL and concentrating using Amicon-ultra 3 kDa MWCO devices.
Each solution is placed in a refrigerator at 4° C. for 1 week, with analysis by RP-HPLC to assess concentration and HPLC-SEC to assess HMW species formation. Analyses completed at T-0 week and T-1 week.
The solubility of Compounds 1-4 was measured essentially as described in this assay.

Human Gcg-R = target: T1, Human Gcg-R (Homo sapiens, UniProt P47871); assay: Functional hGcg-R assay (cAMP HTRF, HEK-293 clonal cell line); format: cell-based; details: for EC50: cAMP, 60 minute incubation, 0.25% FBS, 0.05% BSA, geometric mean, read-out: Human Gcg-R EC50, nM ± SEM, (n)
T1 construct: expressed in transfected cells; host or cells: HEK-293 clonal cell line over-expressing the receptor
T1 sequence (P47871 26-477): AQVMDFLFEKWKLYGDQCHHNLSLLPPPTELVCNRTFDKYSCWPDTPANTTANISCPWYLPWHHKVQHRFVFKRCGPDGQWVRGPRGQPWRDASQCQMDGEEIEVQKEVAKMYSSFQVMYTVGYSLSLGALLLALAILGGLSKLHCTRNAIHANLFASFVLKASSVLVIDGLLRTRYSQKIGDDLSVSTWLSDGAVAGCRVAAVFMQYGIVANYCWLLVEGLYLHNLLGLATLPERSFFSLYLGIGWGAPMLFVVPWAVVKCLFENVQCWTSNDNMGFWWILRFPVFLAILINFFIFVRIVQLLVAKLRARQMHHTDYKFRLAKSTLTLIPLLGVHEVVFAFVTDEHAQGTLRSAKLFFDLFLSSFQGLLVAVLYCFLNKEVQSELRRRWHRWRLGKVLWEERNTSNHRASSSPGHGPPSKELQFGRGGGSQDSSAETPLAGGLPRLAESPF
Method: (§1) After a 60 minute incubation at room temperature, the resulting increase in intracellular cAMP (adenosine 3′,5′-cyclic monophosphate) is quantitatively determined using the CisBio cAMP Dynamic 2 HTRF Assay Kit (62AM4PEJ). cAMP levels within the cell are detected by adding the cAMP-d2 conjugate in cell lysis buffer (20 μl) followed by the antibody anti-cAMP-Eu^3+-Cryptate, also in cell lysis buffer (20 μl).
(§2) A relative EC50 value and percent top (Emax) are derived by non-linear regression analysis using the percent maximal response vs. the concentration of peptide added, fitted to a four-parameter logistic equation (Genedata Screener®).
(§3) Means for EC50 are expressed as Geometric means±standard error of the mean (SEM) with the number of replicates (n) indicated in parenthesis. Means for Emax are expressed as the arithmetic mean±standard error. ND signifies that agonist activity was not detected.

DIO mice (C57BL/6) [3] = assay: Glycemic control in DIO mice; format: in vivo, mouse; details: for 44 hours Glucose AUC (% of Vehicle): OGTT 44 hours post-injection; for 44 hours Glucose AUC (% of Vehicle) / 78 hours Glucose AUC (% of Vehicle): 25 nmol/kg sc; for 78 hours Glucose AUC (% of Vehicle): OGTT 78 hours post-injection; for glucose excursions post an oral glucose challenge: OGTTs at 44 and 78 hours post injection, 25 nmol/kg; for Blood glucose (mg/dL) post-injection, Mean: male DIO mice, 25 nmol/kg sc once
Method: Five to six months old male DIO mice (C57BL/6) from Taconic Biosciences are used in this study. Animals are individually housed in a temperature-controlled (24° C.) facility with a 12 hour light/dark cycle (lights on 6:00), and free access to food and water. After two weeks acclimation to the facility, the mice are randomized to treatment groups (n=7/group) based on their body weight and blood glucose. Mice are injected subcutaneously once with vehicle or compounds (25 nmol/kg). Blood glucose is monitored 2 and 8 hours post-injection and then once a day at 08:00 for 4 days. OGTTs are performed at 44 and 78 hours post the peptide injection. Statistics are analyzed using ANOVA with Dunnett's comparison by JMP 6. Significance is denoted at p≤0.05 vs vehicle.

DIO mice (C57BL/6) [4] = assay: Chronic treatment in DIO mice (body weight, fat, food intake); format: in vivo, mouse
Method: The effects on food intake and body weight/fat are evaluated in DIO mice. Five to six months old DIO mice (C57BL/6) from Taconic Biosciences are used in this study. Animals are individually housed in a temperature-controlled (24° C.) facility with a 12 hour light/dark cycle (lights on 6:00), and free access to food and water. The mice are acclimated to the facility for two weeks. The day before the study start, fat mass is measured by nuclear magnetic resonance (NMR) using an Echo Medical System (Houston, Tex.) instrument. The mice are randomized to treatment groups (N=7/group) based on body weight and fat mass so each group had similar starting mean body weight and fat mass. […] SC injections are made on Day 1, 4, 7, 10, and 13. Body weight and food intake are measured right before each injection throughout the study. Percent changes in body weight are calculated as follows: […]
At the completion of the study, total fat mass is measured again by NMR. Statistics are analyzed using ANOVA with Dunnett's comparison by JMP 6. Significance is denoted at p≤0.05 vs. vehicle.

hGLP-1-R [5] = target: T2, hGLP-1-R (Homo sapiens, UniProt P43220); assay: Functional hGLP-1-R assay (cAMP HTRF, HEK-293 clonal cell line); format: cell-based; set-up: expressed in transfected cells; host or cells: HEK-293 clonal cell line over-expressing the receptor; details: for Emax: HEK293; for EC50: cAMP, 60 minute incubation, 0.25% FBS, 0.05% BSA, geometric mean, read-out: Human GLP-1-R EC50, nM ± SEM (n)
T2 sequence (P43220 24-463): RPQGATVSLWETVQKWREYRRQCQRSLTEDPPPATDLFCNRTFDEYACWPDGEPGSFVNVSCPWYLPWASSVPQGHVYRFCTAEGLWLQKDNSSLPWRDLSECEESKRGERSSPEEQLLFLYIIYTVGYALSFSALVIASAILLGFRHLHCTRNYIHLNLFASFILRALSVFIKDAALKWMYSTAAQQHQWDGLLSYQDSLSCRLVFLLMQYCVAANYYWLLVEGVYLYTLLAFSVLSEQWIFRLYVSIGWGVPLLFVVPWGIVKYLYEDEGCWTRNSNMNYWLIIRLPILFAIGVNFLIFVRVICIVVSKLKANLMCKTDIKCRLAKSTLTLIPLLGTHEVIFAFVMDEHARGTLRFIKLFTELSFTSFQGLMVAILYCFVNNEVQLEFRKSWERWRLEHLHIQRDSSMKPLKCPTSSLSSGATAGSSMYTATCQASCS
Method: as §1, §2, §3

hGLP-1-R [6] = target: T2, hGLP-1-R; assay: hGLP-1R Binding Assay (SPA radioligand competition, 293HEK membranes); set-up: expressed in transfected cells; host or cells: 293HEK, stably transfected with plasmid phD, Hygromycin-selected; crude plasma membranes; details: read-out: Ki, nM ± SEM at the hGLP-1-R
[7] = 10 mM Tris pH 8.0 + 3 mg/mL m-cresol + 0.02% Tween-20, Tris pH 8 + 3 mg/mL m-cresol + 0.02% Tween-20
[8] = 10 mM Tris pH 8.0 + 3 mg/mL m-cresol + 150 mM NaCl, Tris pH 8 + 3 mg/mL m-cresol + 150 mm NaCl
[9] = 10 mM Tris pH 8.0 + 3 mg/mL m-cresol, Tris pH 8 + 3 mg/mL m-cresol
[10] = PBS pH 7.4, pH 7.4, read-out: solubility in PBS, pH 7.4
[11] = 15 nmol/kg sc every three days for 15 days
[12] = 30 nmol/kg sc every three days for 15 days

| 500 μL syringe Viscosity [1] | solubility at 1 week [2, 7] | solubility at 1 week [2, 8] | solubility at 1 week [2, 9] | solubility at 1 week [2, 10] | EC50 (Human Gcg-R) | Compound | HMW species formation by SEC-HPLC [2] | visible precipitation or phase separation [2] | 44 hours Glucose AUC (% of Vehicle) (DIO mice (C57BL/6) [3]) | 78 hours Glucose AUC (% of Vehicle) (DIO mice (C57BL/6) [3]) | glucose excursions post an oral glucose challenge (DIO mice (C57BL/6) [3]) | Blood glucose (mg/dL) post-injection, Mean (DIO mice (C57BL/6) [3]; 2 hours post-injection) | Blood glucose (mg/dL) post-injection, Mean (DIO mice (C57BL/6) [3]; 8 hours post-injection) | Blood glucose (mg/dL) post-injection, Mean (DIO mice (C57BL/6) [3]; 24 hours post-injection) | Blood glucose (mg/dL) post-injection, Mean (DIO mice (C57BL/6) [3]; 48 hours post-injection) | Blood glucose (mg/dL) post-injection, Mean (DIO mice (C57BL/6) [3]; 72 hours post-injection) | Blood glucose (mg/dL) post-injection, Mean (DIO mice (C57BL/6) [3]; 96 hours post-injection) | Body Fat (% change vs. vehicle from Day 1) (DIO mice (C57BL/6) [4]; [11]) | Body Weight (% change vs. vehicle from Day 1) (DIO mice (C57BL/6) [4]; [11]) | Body Fat (% change vs. vehicle from Day 1) (DIO mice (C57BL/6) [4]; [12]) | further results |
| --- | --- | --- | --- | --- | --- | --- | --- | --- | --- | --- | --- | --- | --- | --- | --- | --- | --- | --- | --- | --- | --- |
| 1.04 cP or mPa-s | 10000 µg/mL | 10000 µg/mL | 10000 µg/mL | 10000 µg/mL (≈ 2190 µM) | 26.5 ± 2.2 nM | CC(C)C[C@H](NC(=O)[C@H](CC(C)C)NC(=O)[C@H](Cc1c[nH]c2ccccc12)NC(=O)[C@H](CCC(=O)O)NC(=O)[C@@H](NC(=O)[C@H](Cc1ccccc1)NC(=O)[C@H](CCC(=O)O)NC(=O)[C@H](CCCCNC(=O)COCCOCCNC(=O)COCCOCCNC(=O)CC[C@H](NC(=O)CCCCCCCCCCCCCCCCCCC(=O)O)C(=O)O)NC(=O)[C@H](C)NC(=O)[C@H](CCCCN)NC(=O)[C@H](CCCCN)NC(=O)[C@H](CCC(=O)O)NC(=O)[C@H](CC(=O)O)NC(=O)[C@H](CC(C)C)NC(=O)[C@H](Cc1ccc(O)cc1)NC(=O)[C@H](CCCCN)NC(=O)[C@H](CO)NC(=O)[C@H](Cc1ccc(O)cc1)NC(=O)[C@H](CC(=O)O)NC(=O)[C@H](CO)NC(=O)[C@@H](NC(=O)[C@H](Cc1ccccc1)NC(=O)[C@@H](NC(=O)CNC(=O)[C@H](CCC(N)=O)NC(=O)C(C)(C)NC(=O)[C@@H](N)Cc1c[nH]cn1)[C@@H](C)O)[C@@H](C)O)C(C)C)C(=O)N[C@@H](CCC(=O)O)C(=O)NCC(=O)NCC(=O)N1CCC[C@H]1C(=O)N[C@@H](CO)C(=O)N[C@@H](CO)C(=O)NCC(N)=O [Compound 2] | No observed HMW species formation by SEC-HPLC; | No visible precipitation or phase separation observed after 1 week | 39* % of Vehicle | 66* % of Vehicle | lower glucose excursions post an oral glucose challenge at both time points | 112.7 mg/dL | 87.4 mg/dL | 101.1 mg/dL | 101.3 mg/dL | 97.6 mg/dL | 115.0 mg/dL | −43* % | −19* % | −70* % | Body Weight (% change vs. vehicle from Day 1) (DIO mice (C57BL/6) [4]; [12]): −33* %; Emax (hGLP-1-R [5]): 107 ± 7%; EC50 (hGLP-1-R [5]): 83.1 ± 16.8 nM; Ki (hGLP-1-R [6]): 28.6 ± 4.8 nM |
| 1.06 cP or mPa-s | 10000 µg/mL | 10000 µg/mL | 10000 µg/mL | 10000 µg/mL (≈ 2210 µM) | 7.21 ± 1.06 nM | CC(C)C[C@H](NC(=O)[C@H](CC(C)C)NC(=O)[C@H](Cc1c[nH]c2ccccc12)NC(=O)[C@H](CCC(=O)O)NC(=O)[C@@H](NC(=O)[C@H](Cc1ccccc1)NC(=O)[C@H](CCC(=O)O)NC(=O)[C@H](CCCCNC(=O)COCCOCCNC(=O)COCCOCCNC(=O)CC[C@H](NC(=O)CCCCCCCCCCCCCCCCC(=O)O)C(=O)O)NC(=O)[C@H](C)NC(=O)[C@H](CCCCN)NC(=O)[C@H](CCCCN)NC(=O)[C@H](CCC(=O)O)NC(=O)[C@H](CC(=O)O)NC(=O)[C@H](CC(C)C)NC(=O)[C@H](Cc1ccc(O)cc1)NC(=O)[C@H](CCCCN)NC(=O)[C@H](CO)NC(=O)[C@H](Cc1ccc(O)cc1)NC(=O)[C@H](CC(=O)O)NC(=O)[C@H](CO)NC(=O)[C@@H](NC(=O)[C@H](Cc1ccccc1)NC(=O)[C@@H](NC(=O)CNC(=O)[C@H](CCC(N)=O)NC(=O)C(C)(C)NC(=O)[C@@H](N)Cc1c[nH]cn1)[C@@H](C)O)[C@@H](C)O)C(C)C)C(=O)N[C@@H](CCC(=O)O)C(=O)NCC(=O)NCC(=O)N1CCC[C@H]1C(=O)N[C@@H](CO)C(=O)N[C@@H](CO)C(=O)NCC(N)=O [Compound 1] | No observed HMW species formation by SEC-HPLC; | No visible precipitation or phase separation observed after 1 week | 42* % of Vehicle | 90 % of Vehicle | lower glucose excursions post an oral glucose challenge at 44 hour | 168.5 mg/dL | 79.4 mg/dL | 90.6 mg/dL | 101.9 mg/dL | 113.4 mg/dL | 150.0 mg/dL | −49* % | −19* % | −66* % | Emax (Human Gcg-R; HEK293): 112 ± 3%; Body Weight (% change vs. vehicle from Day 1) (DIO mice (C57BL/6) [4]; [12]): −29* %; Emax (hGLP-1-R [5]): 104 ± 7%; EC50 (hGLP-1-R [5]): 23.9 ± 4.5 nM; Ki (hGLP-1-R [6]): 23 ± 5.5 nM |
